Measurements taken from ChEMBL document CHEMBL4002639, “DL-3-n-butylphthalide-Edaravone hybrids as novel dual inhibitors of amyloid-β aggregation and monoamine oxidases with high antioxidant potency for Alzheimer's therapy” (Bioorg Med Chem Lett, 2017).
Calls of active or inactive are those of the source. The calls are words filed in the database; no cut-off is given here.

Experiments:
[1] = target: Amyloid-beta precursor protein (Homo sapiens) (UniProt P05067); experiment: Inhibition of self-induced Amyloid beta (1 to 42) (unknown origin) aggregation at 25 uM after 24 hrs by thioflavin T-based fluorometric assay relative to control
[2] = Antioxidant activity assessed as trolox equivalent of AAPH radical scavenging activity at 1 uM preincubated for 15 mins followed by AAPH addition measured every min for 90 mins by ORAC-FL assay; format: functional
[3] = target: T1, Amine oxidase [flavin-containing] B (Homo sapiens, UniProt P27338); experiment: Inhibition of recombinant human MAO-B at 10 uM using kynuramine as substrate after 30 mins by fluorescence assay; conditions: 0.5 h
T1 sequence (P27338 whole entry): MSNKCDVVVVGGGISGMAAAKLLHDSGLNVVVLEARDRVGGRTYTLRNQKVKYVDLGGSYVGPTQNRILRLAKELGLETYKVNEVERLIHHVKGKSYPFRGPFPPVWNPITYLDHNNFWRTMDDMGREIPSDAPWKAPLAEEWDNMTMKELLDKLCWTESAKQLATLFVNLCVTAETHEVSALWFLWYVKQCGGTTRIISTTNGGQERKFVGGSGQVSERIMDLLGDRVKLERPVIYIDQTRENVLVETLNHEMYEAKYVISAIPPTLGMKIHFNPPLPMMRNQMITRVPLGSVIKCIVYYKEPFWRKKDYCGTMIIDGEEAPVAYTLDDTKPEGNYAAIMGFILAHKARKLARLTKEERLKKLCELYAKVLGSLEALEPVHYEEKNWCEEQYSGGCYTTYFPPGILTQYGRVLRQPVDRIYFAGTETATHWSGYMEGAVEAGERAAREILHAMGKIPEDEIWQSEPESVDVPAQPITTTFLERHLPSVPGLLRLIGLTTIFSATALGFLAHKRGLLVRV

[4] = target: T2, Amine oxidase [flavin-containing] A (Homo sapiens, UniProt P21397); experiment: Inhibition of recombinant human MAO-A at 10 uM using kynuramine as substrate after 30 mins by fluorescence assay; conditions: 0.5 h
T2 sequence (P21397 whole entry): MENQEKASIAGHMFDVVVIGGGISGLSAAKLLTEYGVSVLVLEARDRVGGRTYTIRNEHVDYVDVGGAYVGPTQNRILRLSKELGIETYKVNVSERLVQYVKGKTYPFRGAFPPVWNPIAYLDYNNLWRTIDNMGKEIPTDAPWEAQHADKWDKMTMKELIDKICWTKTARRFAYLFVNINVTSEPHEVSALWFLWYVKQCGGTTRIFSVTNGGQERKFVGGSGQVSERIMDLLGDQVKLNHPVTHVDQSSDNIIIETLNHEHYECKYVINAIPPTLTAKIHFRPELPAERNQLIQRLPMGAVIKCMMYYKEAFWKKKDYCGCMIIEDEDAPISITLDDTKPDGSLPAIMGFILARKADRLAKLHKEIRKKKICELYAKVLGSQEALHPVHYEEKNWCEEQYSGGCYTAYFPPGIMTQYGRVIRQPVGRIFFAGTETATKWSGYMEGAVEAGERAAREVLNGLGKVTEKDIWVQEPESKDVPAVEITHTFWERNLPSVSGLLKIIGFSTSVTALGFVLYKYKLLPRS

[5] = target: T2, Amine oxidase [flavin-containing] A; experiment: Inhibition of recombinant human MAO-A using kynuramine as substrate after 30 mins by fluorescence assay
[6] = target: T1, Amine oxidase [flavin-containing] B
Description: Inhibition of recombinant human MAO-B using kynuramine as substrate after 30 mins by fluorescence assay

Homo sapiens = species on record: Homo sapiens; experiment: Selectivity index, ratio of IC50 for recombinant human MAO-A to IC50 for recombinant human MAO-B

Sequence of Amyloid-beta precursor protein (Homo sapiens) (P05067 whole entry): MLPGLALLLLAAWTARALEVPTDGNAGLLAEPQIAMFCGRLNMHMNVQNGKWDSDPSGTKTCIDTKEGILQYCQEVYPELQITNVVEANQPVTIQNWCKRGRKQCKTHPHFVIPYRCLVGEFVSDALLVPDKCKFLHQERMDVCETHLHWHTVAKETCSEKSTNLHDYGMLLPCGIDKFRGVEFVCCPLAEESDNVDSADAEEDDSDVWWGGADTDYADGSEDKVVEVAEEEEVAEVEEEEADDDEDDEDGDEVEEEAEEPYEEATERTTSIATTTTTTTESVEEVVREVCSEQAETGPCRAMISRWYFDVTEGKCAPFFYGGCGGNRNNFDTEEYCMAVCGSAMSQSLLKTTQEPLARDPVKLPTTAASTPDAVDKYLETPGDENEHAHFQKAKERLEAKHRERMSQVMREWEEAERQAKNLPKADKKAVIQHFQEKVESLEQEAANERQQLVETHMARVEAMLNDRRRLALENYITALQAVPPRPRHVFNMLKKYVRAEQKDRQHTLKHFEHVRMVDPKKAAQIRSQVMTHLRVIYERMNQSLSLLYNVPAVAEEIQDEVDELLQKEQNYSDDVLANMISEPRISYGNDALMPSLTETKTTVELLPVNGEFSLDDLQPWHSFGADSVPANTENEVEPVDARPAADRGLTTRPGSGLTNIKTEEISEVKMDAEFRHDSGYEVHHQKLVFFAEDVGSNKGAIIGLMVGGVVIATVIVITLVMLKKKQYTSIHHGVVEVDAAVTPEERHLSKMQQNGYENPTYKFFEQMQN

Row | SMILES | inhibition [1] | IC50 [5] [µM] | IC50 [6] [µM] | Ratio IC50 (Homo sapiens) | Activity [2] [µMequiv/µM] | inhibition at 10 µM [3] [%] | inhibition at 10 µM [4] [%]
1 | COc1cc(/C=C/C(=O)CC(=O)/C=C/c2ccc(O)c(OC)c2)ccc1O | 39% | – | – | – | – | – | –
2 | CC1=NN(c2ccccc2)C(=O)C1 [EDARAVONE] | 20.1% | – | – | – | 0.72 | 7.29 | < 5
3 | CCCCCCCC1OC(=O)c2cc(N3N=C(C)CC3=O)ccc21 (stereo unspecified) | 71.5% | – | – | – | 1.18 | – | –
4 | CCCCC1OC(=O)c2ccccc21 (racemic) [RAC-3-N-BUTYLPHTHALIDE] | 1.2% | – | – | – | 0.21 | 18.2 | 11.2
5 | CCCCCCC1OC(=O)c2cc(N3N=C(C)CC3=O)ccc21 (stereo unspecified) | 50.1 to 71.5% | 15.2 | 7.59 | 2 | 0.85 | – | –

Second part, led by results:

Row | inhibition [1] | IC50 [5] [µM] | IC50 [6] [µM] | Ratio IC50 (Homo sapiens) | SMILES | Activity [2] [µMequiv/µM] | inhibition at 10 µM [3] [%] | inhibition at 10 µM [4] [%]
6 | 50.1 to 71.5% | – | – | – | CCCCC1OC(=O)c2cc(-n3nc(C(F)(F)F)cc3O)ccc21 (stereo unspecified) | 2.22 | – | –
7 | inactive | – | – | – | CCCCCCC1OC(=O)c2cc(-n3nc(C(F)(F)F)cc3O)ccc21 (stereo unspecified) | 2.28 | – | –
8 | inactive | – | – | – | CCCCCCCC1OC(=O)c2cc(-n3nc(C(F)(F)F)cc3O)ccc21 (stereo unspecified) | 2.21 | – | –
9 | inactive | – | – | – | CCCCCC1OC(=O)c2cc(-n3nc(C(F)(F)F)cc3O)ccc21 (stereo unspecified) | 2.37 | – | –
10 | 50.1 to 71.5% | 19.3 | 12.9 | 1.5 | CCCCCC1OC(=O)c2cc(N3N=C(C)CC3=O)ccc21 (stereo unspecified) | 0.62 | – | –
11 | 50.1 to 71.5% | – | – | – | CCCCC1OC(=O)c2cc(N3N=C(C)CC3=O)ccc21 (stereo unspecified) | 1.03 | – | –
